pIC50, pKi: −log10 of the molar value. Entries after “also recorded” stand apart in the source; their conditions may differ.
Biological target: T1, CB1 receptor (Homo sapiens, UniProt P21554)
T1 construct: expressed in transfected cells; host or cells: HEK293 (ATCC), stably transfected; membranes
Test: Competitive radioligand binding assay, CB1
Settings: 10 μM; [3H]-CP55,940
Procedure: (§1) HEK293 cells stably transfected with δ, κ and μ opioid subtypes were a generous gift from Roth Laboratories (University of North Carolina at Chapel Hill, N.C., USA). CB and opioid cells were maintained as previously described.
(§2) Membranes were purified by first washing the cells with cold PBS and scraping the cells into cold 50 mM Tris-HCl, pH 7.4 buffer, which was centrifuged at 5200× g for 10 min at 4 °C; next, the supernatant was discarded, and the pellet was washed with more Tris-HCl buffer, homogenized via a Sonic Dismembrator (Fisher Scientific, Pittsburgh, PA, USA) and then centrifuged at 24,000× g for 40 min at 4 °C. Finally, the pellet was re-suspended in cold 50 mM Tris-HCl buffer, aliquoted into 2 mL vials and stored at −80 °C. The total membrane protein concentration was measured using a Pierce BCA Protein Assay Kit (Thermo Scientific, Rockford, IL, USA) as per the manufacturer’s protocol.
(§3) Cannabinoid and opioid competitive radioligand binding assays were performed as previously described. Saturation experiments were performed for all the receptors to determine the receptor concentration and radioligand dissociation constant (Kd) for the membrane. Percent displacements were evaluated for all the cannabinoid and opioid subtypes with a triplicate of a fixed concentration (10 µg/mL for extracts and fractions and 10 μM for purified compounds). […] Control/test compounds were dissolved in DMSO at 10 μg/mL for extracts and fractions and 10 μM for purified compounds. […] The percent displacement was calculated to represent the ability of the samples to displace the radioligand binding for a given cannabinoid or opioid receptor subtype.
(§4) The percent displacement was calculated as follows: 100−binding of compound−nonspecific binding/specific binding×100
(§5) The competitive binding assays were performed using 12 serial dilutions of each compound ranging from 0.002 to 300 μM (control compounds were serially diluted from 10 μM to 0.06 nM). The cannabinoid assays were incubated for 90 min at 37 °C with gentle agitation. The opioid assays were incubated for 60 min at room temperature. Bound radioligands were collected on GF/C (cannabinoid) or GF/B plates (opioid) and washed 10 times with ice-cold 50 mM Tris-HCl (pH 7.4)/0.1% BSA (cannabinoid) or ice-cold 50 mM Tris-HCl (pH 7.4) (opioid). Radiodetection was measured with 50 µL (cannabinoid) or 25 µL (opioid) of MicroScint^TM-20 on a TopCount NXT HTS Microplate Scintillation Counter (PerkinElmer, Waltham, MA, USA). The IC50 and Ki values were calculated via a non-linear curve fit model using GraphPad Prism 5.0 software (GraphPad Software, Inc., San Diego, CA, USA). Each compound was tested in triplicate unless stated otherwise.

T1 sequence (P21554 whole entry): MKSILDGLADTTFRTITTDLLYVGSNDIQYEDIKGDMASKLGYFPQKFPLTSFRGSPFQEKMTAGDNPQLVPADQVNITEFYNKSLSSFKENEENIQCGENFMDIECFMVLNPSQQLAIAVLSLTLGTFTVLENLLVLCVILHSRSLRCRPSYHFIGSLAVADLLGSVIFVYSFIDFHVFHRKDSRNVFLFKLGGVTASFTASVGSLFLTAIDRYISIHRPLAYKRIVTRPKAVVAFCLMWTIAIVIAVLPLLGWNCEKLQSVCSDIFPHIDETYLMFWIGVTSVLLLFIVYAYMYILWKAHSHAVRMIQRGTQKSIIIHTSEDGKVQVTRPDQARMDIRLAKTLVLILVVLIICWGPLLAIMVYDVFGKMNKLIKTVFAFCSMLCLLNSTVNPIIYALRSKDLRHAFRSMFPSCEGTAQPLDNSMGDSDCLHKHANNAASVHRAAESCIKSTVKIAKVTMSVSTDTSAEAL

Point of comparison: `C[C@@H]1C[C@@H]2c3c(O)cc(-c4cc5ccccc5o4)cc3OC(C)(C)[C@H]2C[C@H]1O` [compound 4, machaeriol D], “Percent displacement, CB1” value 4.5%. Against it:
- C[C@H]1CC[C@H]2[C@H](C1)c1c(O)cc(/C=C/c3ccccc3)cc1OC2(C)C [compound 1, machaeriol A] — higher, 18.4%

Same assay, conditions: receptor displacement assay

With `C[C@@H]1C[C@@H]2c3c(O)cc(-c4cc5ccccc5o4)cc3OC(C)(C)[C@H]2C[C@H]1O` [compound 4, machaeriol D] the “Affinity for CB1 receptor (in words)” value was “little or no affinity”.

Biological target: T2, CB2 receptor (Homo sapiens, UniProt P34972)
T2 construct: expressed in transfected cells; host or cells: HEK293 (ATCC), stably transfected; membranes
T2 sequence (P34972 whole entry): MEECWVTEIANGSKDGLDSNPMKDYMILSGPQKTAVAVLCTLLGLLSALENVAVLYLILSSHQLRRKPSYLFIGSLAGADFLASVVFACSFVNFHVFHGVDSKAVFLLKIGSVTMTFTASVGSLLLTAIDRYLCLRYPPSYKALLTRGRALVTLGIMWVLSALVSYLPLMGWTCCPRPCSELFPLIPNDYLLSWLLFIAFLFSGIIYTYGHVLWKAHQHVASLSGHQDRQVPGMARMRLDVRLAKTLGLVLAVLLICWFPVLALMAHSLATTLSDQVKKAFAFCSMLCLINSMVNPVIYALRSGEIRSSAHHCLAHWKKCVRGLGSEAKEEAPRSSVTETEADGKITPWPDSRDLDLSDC
Test: Competitive radioligand binding assay, CB2
Settings: 10 μM; [3H]-CP55,940
Procedure: as §1, §2, §3, §4, §5

Point of comparison: `C[C@H]1CC[C@H]2[C@H](C1)c1c(O)cc(/C=C/c3ccccc3)cc1OC2(C)C` [compound 1, machaeriol A], “Percent displacement, CB2” value 24.4%. Against it:
- C[C@@H]1C[C@@H]2c3c(O)cc(-c4cc5ccccc5o4)cc3OC(C)(C)[C@H]2C[C@H]1O [compound 4, machaeriol D] — higher, 81.5%

Same assay, conditions: * tested up to solubility limit; conc. at 33.3 μM and above precipitated; read-out: CB2 Ki ± SEM

In the case of `C[C@@H]1C[C@@H]2c3c(O)cc(-c4cc5ccccc5o4)cc3OC(C)(C)[C@H]2C[C@H]1O` [compound 4, machaeriol D], the pKi was under 5.89.

Biological target: T3, δ opioid receptor (Homo sapiens, UniProt P41143)
T3 construct: host or cells: HEK293, stably transfected; membranes
T3 sequence (P41143 whole entry): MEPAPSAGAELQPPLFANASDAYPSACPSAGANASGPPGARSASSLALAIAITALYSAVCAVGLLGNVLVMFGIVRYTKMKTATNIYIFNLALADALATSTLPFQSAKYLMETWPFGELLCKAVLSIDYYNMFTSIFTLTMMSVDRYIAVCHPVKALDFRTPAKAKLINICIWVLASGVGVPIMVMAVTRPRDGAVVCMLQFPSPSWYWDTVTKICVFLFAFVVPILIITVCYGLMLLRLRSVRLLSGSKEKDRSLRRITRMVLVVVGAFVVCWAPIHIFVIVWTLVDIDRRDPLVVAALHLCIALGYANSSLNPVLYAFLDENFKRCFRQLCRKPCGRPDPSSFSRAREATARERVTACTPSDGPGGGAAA
Test: Competitive radioligand binding assay, δ opioid
Settings: 10 μM; [3H]-enkephalin (DPDPE); read-out: Percent displacement, Δ
Procedure: as §1, §2, §3, §4, §5

Point of comparison: `C[C@H]1CC[C@H]2[C@H](C1)c1c(O)cc(/C=C/c3ccccc3)cc1OC2(C)C` [compound 1, machaeriol A], inhibition at 10 µM 1.8%. Against it:
- C[C@@H]1C[C@@H]2c3c(O)cc(-c4cc5ccccc5o4)cc3OC(C)(C)[C@H]2C[C@H]1O [compound 4, machaeriol D] — higher, 28.2%

Biological target: T4, μ opioid receptor (Homo sapiens, UniProt P35372)
T4 construct: host or cells: HEK293, stably transfected; membranes
T4 sequence (P35372 whole entry): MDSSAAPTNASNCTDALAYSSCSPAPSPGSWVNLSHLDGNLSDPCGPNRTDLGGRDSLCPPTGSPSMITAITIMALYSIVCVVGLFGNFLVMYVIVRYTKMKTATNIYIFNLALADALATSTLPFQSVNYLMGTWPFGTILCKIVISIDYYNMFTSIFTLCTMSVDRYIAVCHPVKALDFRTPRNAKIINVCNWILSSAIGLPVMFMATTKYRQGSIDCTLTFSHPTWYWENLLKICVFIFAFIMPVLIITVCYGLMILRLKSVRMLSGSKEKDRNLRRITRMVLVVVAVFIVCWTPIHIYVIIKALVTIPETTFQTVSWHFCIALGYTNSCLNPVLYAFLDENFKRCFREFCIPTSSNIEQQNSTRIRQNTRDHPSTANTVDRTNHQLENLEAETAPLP
Test: biochemical
Assay type: binding
Settings: 10 μM; [3H]-DAMGO
Procedure: as §1, §2, §3, §4, §5

Point of comparison: `C[C@H]1CC[C@H]2[C@H](C1)c1c(O)cc(/C=C/c3ccccc3)cc1OC2(C)C` [compound 1, machaeriol A], “Percent displacement, µ” value 52.9%. Against it:
- C[C@@H]1C[C@@H]2c3c(O)cc(-c4cc5ccccc5o4)cc3OC(C)(C)[C@H]2C[C@H]1O [compound 4, machaeriol D] — lower, 16.8%

System: Stat3
Test: Luciferase reporter assay, Stat3, HeLa
Assay type: cell-based, human
Settings: Homo sapiens; HeLa cells; inducer IL6; dash: not inhibited by more than 40% at 50 µmol/L
Procedure: (§6) Hela cells (or T98G cells) from ATCC were plated in white opaque 384-well plates at a density of 4300 cells/well in 30 µL of growth medium (DMEM with 10% FBS and 1% Pen/Strep). The next day, the medium was aspirated and replaced with DMEM containing 1% FBS. The cells were transfected with respective plasmids using X-tremeGENE HP DNA transfection reagent (Roche). After 24 h of transfection, the test agents were added to the transfected cells, followed 30 min later by an inducing agent: interleukin 6 (IL-6) for Stat3, TGF-β for Smad, m-wnt3a for Wnt and PMA for AP-1, NF-κB, E2F, Myc, ETS, Notch and Hedgehog. No inducer was added for FoXO and pTK. After 4 h or 6 h of induction, the cells were lysed via the addition of the One-Glo luciferase assay system (Promega; Madison, WI). The light output was detected in a GloMax®-Multi+ Detection System with Instinct® Software (Promega E 8051). This luciferase assay determines if the test agent is able to inhibit the activation of cancer-related signaling pathways. In the case of FoxO, the enhanced luciferase activity via the test agent was assessed.

Point of comparison: `C[C@@H]1C[C@@H]2c3c(O)cc(-c4cc5ccccc5o4)cc3OC(C)(C)[C@H]2C[C@H]1O` [compound 4, machaeriol D], pIC50 4.66. Against it:
- C[C@H]1CC[C@H]2[C@H](C1)c1c(O)cc(/C=C/c3ccccc3)cc1OC2(C)C [compound 1, machaeriol A] — within 0.2 log units, 4.85

System: Smad2/3
Test: Luciferase reporter assay, Smad2/3, HeLa
Assay type: cell-based, human
Settings: Homo sapiens; HeLa cells; inducer TGF-beta; dash: not inhibited by more than 40% at 50 µmol/L
Procedure: as §6

Point of comparison: `C[C@@H]1C[C@@H]2c3c(O)cc(-c4cc5ccccc5o4)cc3OC(C)(C)[C@H]2C[C@H]1O` [compound 4, machaeriol D], pIC50 4.96. Against it:
- C[C@H]1CC[C@H]2[C@H](C1)c1c(O)cc(/C=C/c3ccccc3)cc1OC2(C)C [compound 1, machaeriol A] — within 0.2 log units, 4.86

System: AP-1
Test: Luciferase reporter assay, AP-1, HeLa
Assay type: cell-based, human
Settings: Homo sapiens, read-out: IC50, Ap-1 (PMA)
Procedure: as §6

Point of comparison: `C[C@H]1CC[C@H]2[C@H](C1)c1c(O)cc(/C=C/c3ccccc3)cc1OC2(C)C` [compound 1, machaeriol A], pIC50 4.92. Against it:
- C[C@@H]1C[C@@H]2c3c(O)cc(-c4cc5ccccc5o4)cc3OC(C)(C)[C@H]2C[C@H]1O [compound 4, machaeriol D] — 0.24 log units lower, 4.68

System: NF-κB
Test: Luciferase reporter assay, NF-κB, HeLa
Assay type: cell-based
Settings: Homo sapiens; HeLa cells; inducer PMA; dash: not inhibited by more than 40% at 50 µmol/L
Procedure: as §6

Point of comparison: `C[C@H]1CC[C@H]2[C@H](C1)c1c(O)cc(/C=C/c3ccccc3)cc1OC2(C)C` [compound 1, machaeriol A], pIC50 4.97. Against it:
- C[C@@H]1C[C@@H]2c3c(O)cc(-c4cc5ccccc5o4)cc3OC(C)(C)[C@H]2C[C@H]1O [compound 4, machaeriol D] — 0.27 log units lower, 4.70

System: E2F
Test: Luciferase reporter assay, E2F, HeLa
Assay type: cell-based, human
Settings: Homo sapiens, HeLa, read-out: IC50, E2F (PMA)
Procedure: as §6

Point of comparison: `C[C@@H]1C[C@@H]2c3c(O)cc(-c4cc5ccccc5o4)cc3OC(C)(C)[C@H]2C[C@H]1O` [compound 4, machaeriol D], pIC50 4.62. Against it:
- C[C@H]1CC[C@H]2[C@H](C1)c1c(O)cc(/C=C/c3ccccc3)cc1OC2(C)C [compound 1, machaeriol A] — 0.34 log units higher, 4.96

System: Myc
Test: Luciferase reporter assay, Myc, HeLa
Assay type: cell-based
Settings: Homo sapiens; HeLa cells; inducer PMA; dash: not inhibited by more than 40% at 50 µmol/L
Procedure: as §6

Point of comparison: `C[C@H]1CC[C@H]2[C@H](C1)c1c(O)cc(/C=C/c3ccccc3)cc1OC2(C)C` [compound 1, machaeriol A], pIC50 5.07. Against it:
- C[C@@H]1C[C@@H]2c3c(O)cc(-c4cc5ccccc5o4)cc3OC(C)(C)[C@H]2C[C@H]1O [compound 4, machaeriol D] — 0.33 log units lower, 4.74

System: ETS
Test: Luciferase reporter assay, ETS, HeLa
Assay type: cell-based, human
Settings: Homo sapiens; HeLa cells; inducer PMA; dash: not inhibited by more than 40% at 50 µmol/L
Procedure: as §6

Point of comparison: `C[C@H]1CC[C@H]2[C@H](C1)c1c(O)cc(/C=C/c3ccccc3)cc1OC2(C)C` [compound 1, machaeriol A], pIC50 5.07. Against it:
- C[C@@H]1C[C@@H]2c3c(O)cc(-c4cc5ccccc5o4)cc3OC(C)(C)[C@H]2C[C@H]1O [compound 4, machaeriol D] — 0.47 log units lower, 4.60

System: Notch
Test: Luciferase reporter assay, Notch, HeLa
Assay type: cell-based
Settings: Homo sapiens; HeLa cells; inducer PMA; dash: not inhibited by more than 40% at 50 µmol/L
Procedure: as §6

Point of comparison: `C[C@@H]1C[C@@H]2c3c(O)cc(-c4cc5ccccc5o4)cc3OC(C)(C)[C@H]2C[C@H]1O` [compound 4, machaeriol D], pIC50 4.60. Against it:
- C[C@H]1CC[C@H]2[C@H](C1)c1c(O)cc(/C=C/c3ccccc3)cc1OC2(C)C [compound 1, machaeriol A] — 0.55 log units higher, 5.15

System: FoxO
Test: Luciferase reporter assay, FoxO, HeLa
Assay type: cell-based
Settings: Homo sapiens; HeLa cells; no inducer; dash: no activity detected; read-out: IC50, FoxO (None)
Procedure: as §6

`C[C@H]1CC[C@H]2[C@H](C1)c1c(O)cc(/C=C/c3ccccc3)cc1OC2(C)C` [compound 1, machaeriol A] and `C[C@@H]1C[C@@H]2c3c(O)cc(-c4cc5ccccc5o4)cc3OC(C)(C)[C@H]2C[C@H]1O` [compound 4, machaeriol D] cannot be ordered by pIC50: under 4.30 for the first, under 4.30 for the second.

System: Wnt
Test: Luciferase reporter assay, Wnt, HeLa
Assay type: cell-based
Settings: Homo sapiens; HeLa cells; inducer m-wnt3a; dash: not inhibited by more than 40% at 50 µmol/L
Procedure: as §6

Point of comparison: `C[C@H]1CC[C@H]2[C@H](C1)c1c(O)cc(/C=C/c3ccccc3)cc1OC2(C)C` [compound 1, machaeriol A], pIC50 4.92. Against it:
- C[C@@H]1C[C@@H]2c3c(O)cc(-c4cc5ccccc5o4)cc3OC(C)(C)[C@H]2C[C@H]1O [compound 4, machaeriol D] — 0.22 log units lower, 4.70

System: Hedgehog
Test: Luciferase reporter assay, Hedgehog, HeLa
Assay type: cell-based, human
Settings: Homo sapiens; HeLa cells; inducer PMA; dash: not inhibited by more than 40% at 50 µmol/L
Procedure: as §6

Point of comparison: `C[C@@H]1C[C@@H]2c3c(O)cc(-c4cc5ccccc5o4)cc3OC(C)(C)[C@H]2C[C@H]1O` [compound 4, machaeriol D], pIC50 4.68. Against it:
- C[C@H]1CC[C@H]2[C@H](C1)c1c(O)cc(/C=C/c3ccccc3)cc1OC2(C)C [compound 1, machaeriol A] — 0.41 log units higher, 5.09

System: cannabinoid receptor 1 (CB1 receptor)
Test: not given
Settings: earlier studies; cited from earlier work

For `C[C@H]1CC[C@H]2[C@H](C1)c1c(O)cc(/C=C/c3ccccc3)cc1OC2(C)C` [compound 1, machaeriol A], the “Affinity for CB1 (in words)” value is listed as “insignificant affinity; also recorded: did not show any affinity”.

From article PMC10361207, “Cannabinoid and Opioid Receptor Affinity and Modulation of Cancer-Related Signaling Pathways of Machaeriols and Machaeridiols from Machaerium Pers” (Molecules, 2023)
